Read-outs that look alike come from different tables or passages of the source.
System: HIV-1 (H9IIIB strain)
Assay: Cell-based HIV infection assay using a reporter (Cell-Based), MT4-GFP cells
Conditions: 50% normal human serum, mean of at least two independent experiments, read-out: Cell-based IP
In short: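 IC50 from 4-parameter dose-response of % viral growth inhibition, using the 48 h/24 h infected-cell ratio scaled between DMSO and a protease/integrase/NNRTI triple-drug control. Assay used MT4 cells with HIV-LTR-GFP reporter, pre-infected 24 h with HIV-1 H9IIIB, in 50% normal human serum.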

[1] = Human immunodeficiency virus 1, MT4-GFP cells infected with HIV-1 H9IIIB

| SMILES | IC50 [1] [nM] | IC50 (MT4-GFP cells infected with HIV-1 H9IIIB) [nM] |
| --- | --- | --- |
| C[C@H]1CNC[C@H](CCc2c(F)cncc2NC(=O)[C@@H](N)[C@@H](c2ccc(Cl)cc2)c2cccc(F)c2)N1S(C)(=O)=O [Example 213, (βS)-4-chloro-N-(5-fluoro-4-{2-[(2S,6S)-6-methyl-1-(methylsulfonyl)piperazin-2-yl]ethyl}pyridin-3-yl)-β-(3-fluorophenyl)-L-phenylalaninamide] | 29 | – |
| COC(=O)N[C@H](C(=O)Nc1cccc(F)c1CC[C@H]1CNC[C@@H](C)N1S(=O)(=O)c1ccccc1)[C@@H](c1ccc(Cl)cc1)C1CCOCC1 [Example 117, (βR)-4-chloro-N-(3-fluoro-2-{2-[(2S,6R)-6-methyl-1-(phenylsulfonyl)piperazin-2-yl]ethyl}phenyl)-Nα-(methoxycarbonyl)-β-(tetrahydro-2H-pyran-4-yl)-L-phenylalaninamide] | 9.3 | – |
| COCC1CNC[C@H](CCc2c(F)cccc2NC(=O)[C@@H](N)[C@@H](c2ccc(Cl)cc2)C2CCOCC2)N1S(C)(=O)=O (stereo partly drawn) [Example 218, (βR)-4-chloro-N-(3-fluoro-2-{2-[(2S)-6-(methoxymethyl)-1-(methylsulfonyl)piperazin-2-yl]ethyl}phenyl)-β-(tetrahydro-2H-pyran-4-yl)-L-phenylalaninamide] | – | 310 |
| C[C@H]1CNC[C@H](CCc2c(F)cccc2NC(=O)[C@@H](N)C(c2cccc(F)c2)c2cccc(F)c2)N1S(=O)(=O)c1ccccc1Cl [Example 137, N-[2-(2-{(2S,6S)-1-[(2-chlorophenyl)sulfonyl]-6-methylpiperazin-2-yl}ethyl)-3-fluorophenyl]-3-fluoro-β-(3-fluorophenyl)-L-phenylalaninamide] | 240 | – |
| N[C@H](C(=O)NC1CC(F)(F)CC1CC[C@H]1CNCCN1S(=O)(=O)c1ccccc1)[C@H](c1ccc(Cl)cc1)C1CCOCC1 (stereo partly drawn) [Example 360, (betaS)-4-chloro-N-(4,4-difluoro-2-{2-[(2S)-1-(phenylsulfonyl)piperazin-2-yl]ethyl}cyclopentyl)-beta-(tetrahydro-2H-pyran-4-yl)-L-phenylalaninamide] | 610 | – |
| COC(=O)N[C@H](C(=O)Nc1cccc(F)c1CC[C@H]1CNC[C@H](C)N1S(C)(=O)=O)[C@@H](Cc1ccc(F)cc1)c1ccc(Cl)cc1 [Example 233, (βS)-4-chloro-β-(4-fluorobenzyl)-N-(3-fluoro-2-{2-[(2S,6S)-6-methyl-1-(methylsulfonyl)piperazin-2-yl]ethyl}phenyl)-Nα-(methoxycarbonyl)-L-phenylalaninamide] | 330 | – |
| COC(=O)N[C@H](C(=O)Nc1cccc(F)c1CC[C@H]1CNC[C@H](C)N1S(=O)(=O)c1ccccc1)[C@@H](c1cc(F)cc(F)c1)C1CCOCC1 [Example 296, (βR)-3,5-difluoro-N-(3-fluoro-2-{2-[(2S,6S)-6-methyl-1-(phenylsulfonyl)piperazin-2-yl]ethyl}phenyl)-Nα-(methoxycarbonyl)-β-(tetrahydro-2H-pyran-4-yl)-L-phenylalaninamide] | 9.9 | – |
| N[C@H](C(=O)Nc1cncc(F)c1CC[C@H]1CNCCN1S(=O)(=O)c1ccccc1)[C@@H](c1ccc(Cl)cc1)c1cccc(F)c1 [Example 35, (βS)-4-chloro-β-(3-fluorophenyl)-N-(5-fluoro-4-{2-[(2S)-1-(phenylsulfonyl)piperazin-2-yl]ethyl}pyridin-3-yl)-L-phenylalaninamide] | 13 | – |
| COC(=O)N[C@H](C(=O)Nc1cccc(F)c1CC[C@H]1CNC[C@H](C)N1S(C)(=O)=O)[C@@H](c1ccc(Cl)cc1)C(C)C [Example 123, (βR)-4-chloro-N-(3-fluoro-2-{2-[(2S,6S)-6-methyl-1-(methylsulfonyl)piperazin-2-yl]ethyl}phenyl)-Nα-(methoxycarbonyl)-β-(1-methylethyl)-L-phenylalaninamide] | 62 | – |
| O=C1COc2ccc(S(=O)(=O)N3CCNC[C@@H]3CCc3c(F)cncc3NC(=O)C[C@@H](c3ccc(F)cc3)c3cc(F)cc(F)c3)cc2N1 [Example 308, (3S)-3-(3,5-difluorophenyl)-N-[5-fluoro-4-(2-{(2S)-1-[(3-oxo-3,4-dihydro-2H-1,4-benzoxazin-6-yl)sulfonyl]piperazin-2-yl}ethyl)pyridin-3-yl]-3-(4-fluorophenyl)propanamide] | 180 | – |
| COC(=O)N[C@H](C(=O)Nc1cccc(F)c1CC[C@H]1CNC[C@H](C)N1S(C)(=O)=O)[C@@H](c1ccc(Cl)cc1)c1cc(F)cc(F)c1 [Example 200, (βS)-4-chloro-β-(3,5-difluorophenyl)-N-(3-fluoro-2-{2-[(2S,6S)-6-methyl-1-(methylsulfonyl)piperazin-2-yl]ethyl}phenyl)-Nα-(methoxycarbonyl)-L-phenylalaninamide] | 16 | – |
| C[C@@H]1CNC[C@H](CCc2c(F)cccc2NC(=O)[C@@H](N)[C@H](c2cccc(F)c2)c2cccc(Cl)c2)N1S(=O)(=O)C1CC1 [Example 203, (βR)-3-chloro-N-(2-{2-[(2S,6R)-1-(cyclopropylsulfonyl)-6-methylpiperazin-2-yl]ethyl}-3-fluorophenyl)-β-(3-fluorophenyl)-L-phenylalaninamide] | 620 | – |
| C[C@@H]1C[C@](c2ccc(Cl)cc2)([C@H](N)C(=O)Nc2cccc(F)c2CC[C@H]2CNC[C@H](C)N2S(=O)(=O)c2ccccc2)C[C@H](C)O1 [Example 300, (S)-2-amino-2-((2R,4r,6S)-4-(4-chlorophenyl)-2,6-dimethyltetrahydro-2H-pyran-4-yl)-N-(3-fluoro-2-(2-((2S,6S)-6-methyl-1-(phenylsulfonyl)piperazin-2-yl)ethyl)phenyl)acetamide] | 98 | – |
| COC(=O)N[C@H](C(=O)Nc1cccc(F)c1CC[C@H]1CNC[C@H](C)N1S(=O)(=O)c1ccccc1)[C@@H](c1ccc(F)cc1)c1cc(F)cc(F)c1 [Example 95, (βS)-β-(3,5-difluorophenyl)-4-fluoro-N-(3-fluoro-2-{2-[(2S,6S)-6-methyl-1-(phenylsulfonyl)piperazin-2-yl]ethyl}phenyl)-Nα-(methoxycarbonyl)-L-phenylalaninamide] | 20 | – |
| C[C@H]1CNC[C@H](CCc2c(F)cccc2NC(=O)[C@@H](N)C(c2cccc(F)c2)c2cccc(F)c2)N1S(=O)(=O)C1CC1 [Example 158, N-(2-{2-[(2S,6S)-1-(cyclopropylsulfonyl)-6-methylpiperazin-2-yl]ethyl}-3-fluorophenyl)-3-fluoro-β-(3-fluorophenyl)-L-phenylalaninamide] | 75 | – |
| C[C@@H]1CNC[C@H](CCc2c(F)cccc2NC(=O)[C@@H](N)[C@@H](c2ccc(Cl)cc2)C2CCOCC2)N1S(=O)(=O)c1ccc(C(F)F)cc1 [Example 264, (βR)-4-chloro-N-(2-{2-[(2S,6R)-1-{[4-(difluoromethyl)phenyl]sulfonyl}-6-methylpiperazin-2-yl]ethyl}-3-fluorophenyl)-β-(tetrahydro-2H-pyran-4-yl)-L-phenylalaninamide] | 69 | – |
| O=C(C[C@@H](c1ccc(F)cc1)c1cc(F)cc(F)c1)Nc1cncc(F)c1CC[C@H]1CNCCN1S(=O)(=O)N1CCC(F)(F)C1 [Example 329, (3S)-3-(3,5-difluorophenyl)-N-[4-(2-{(2)S-1-[(3,3-difluoropyrrolidin-1-yl)sulfonyl]piperazin-2-yl}ethyl)-5-fluoropyridin-3-yl]-3-(4-fluorophenyl)propanamide] | 47 | – |

— US9840478B2 (MERCK SHARP & DOHME CORP., priority 2013, dated 2017)
